Reference: US20120115852A1, “HETEROCYCLIC COMPOUNDS AS AUTOTAXIN INHIBITORS” (Merck Patent Gesellschaft Mit Beschrankter Haftung, priority 2009, published 2012)

Molecular target: T1, recombinant autotaxin (Homo sapiens, UniProt Q13822)
T1 construct: made in house; host or cells: Hi5 insect cells (baculovirus)
Experiment: Autotaxin test (enzyme test), Amplex Red fluorescence with LPC substrate
Type: biochemical
Conditions: autotaxin inhibition (enzyme test); for remaining activity at 10 µM: 10 μM compound, read-out: % Control at 10 μM
Outline: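 Activity was inferred from H2O2 made from released choline, detected as Amplex Red/peroxidase fluorescence (485 nm excitation, 612 nm emission, kinetic read). Beforehand, Hi5-expressed autotaxin sat with compound 30 min at 22° C, then hydrolysed 75 μM final LPC for 90 min at 37° C, pH 8 Tris buffer.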

For CC(C)[C@H](O)C(=O)N1CCN2C(=O)c3cc(-c4ccc(Cl)cc4)ccc3NC(=O)C2C1 (stereo partly drawn) [Compound A74, 7-(4-Chlorophenyl)-2-((S)-2-hydroxy-3-methyl-butyryl)-1,3,4,11a-tetrahydro-2H,10H-2,4a,10-triaza-dibenzo[a,d]cycloheptene-5,11-dione], the remaining activity at 10 µM was -2% and the IC50 was greater than 1000 nM.
For O=C1Nc2ccc(-c3ccc(Cl)cc3)cc2C(=O)N2CCN(C(=O)c3csc(-c4cccnc4)n3)CC12 (centres unmarked) [Compound A76, 7-(4-Chlorophenyl)-2-(2-pyridin-3-ylthiazole-4-carbonyl)-1,3,4,11a-tetrahydro-2H,10H-2,4a,10-triazadibenzo[a,d]cycloheptene-5,11-dione], the remaining activity at 10 µM was 41% and the IC50 was greater than 1000 nM.
COCCN1C(=O)C2CN(C(=O)CC(C)(C)C)CCN2C(=O)c2cc(-c3ccc(Cl)cc3)ccc21 (centres unmarked) [Compound A135, 7-(4-Chlorophenyl)-2-(3,3-dimethylbutyryl)-10-(2-methoxyethyl)-1,3,4,11a-tetrahydro-2H,10H-2,4a,10-triazadibenzo[a,d]cycloheptene-5,11-dione] showed a remaining activity at 10 µM of -9% and an IC50 greater than 1000 nM.
For O=C1Nc2ccc(-c3ccccc3F)cc2C(=O)N2CCN(C(=O)[C@@H]3CSCN3)CC12 (stereo partly drawn) [Compound A12, 7-(2-Fluorophenyl)-2-((R)-thiazolidine-4-carbonyl)-1,3,4,11a-tetrahydro-2H,10H-2,4a,10-triaza-dibenzo[a,d]cycloheptene-5,11-dione], the IC50 was greater than 1000 nM.
CC(C)(C)COC(=O)N1CCN2C(=O)c3cc(-c4ccc(Cl)cc4)ccc3NC(=O)C2C1 (centres unmarked) [Compound A168] gave a remaining activity at 10 µM of 52% and an IC50 greater than 1000 nM.
CC(C)(C)CC(=O)N1CCN2C(=O)c3cc(-c4ccc(C(F)(F)F)cc4F)ccc3NC(=O)C2C1 (centres unmarked) [Compound A84, 2-(3,3-Dimethylbutyryl)-7-(2-fluoro-4-trifluoromethyl-phenyl)-1,3,4,11a-tetrahydro-2H,10H-2,4a,10-triazadibenzo[a,d]cycloheptene-5,11-dione] gave a remaining activity at 10 µM of 29%.
Work on CC(C)(C)[C@H](N)C(=O)N1CCN2C(=O)c3cc(-c4ccc(Cl)cc4F)ccc3NC(=O)C2C1 (stereo partly drawn) [Compound A61, 2-((S)-2-Amino-3,3-dimethylbutyryl)-7-(4-chloro-2-fluorophenyl)-1,3,4,11a-tetrahydro-2H,10H-2,4a,10-triazadibenzo[a,d]cycloheptene-5,11-dione] yielded a remaining activity at 10 µM of -11% and an IC50 greater than 1000 nM.
CC(C)(C)CC(=O)N1CCN2C(=O)c3cc(-c4ccc(Cl)cc4Cl)ccc3NC(=O)C2C1 (centres unmarked) [Compound A78, 7-(2,4-Dichlorophenyl)-2-(3,3-dimethylbutyryl)-1,3,4,11a-tetrahydro-2H,10H-2,4a,10-triaza-dibenzo[a,d]cycloheptene-5,11-dione] showed a remaining activity at 10 µM of 16% and an IC50 greater than 1000 nM.
For CC(C)(C)CC(=O)N1CCN2Cc3cc(-c4ccccc4F)ccc3NCC2C1 (centres unmarked) [Compound 25, 1-[7-(2-fluorophenyl)-3,4,5,10,11,11a-hexahydro-1H-2,4-a,10-triazadibenzo[a,d]cyclohepten-2-yl]-3,3-dimethylbutan-1-one], the remaining activity at 10 µM was 53% and the IC50 was greater than 1000 nM.
Work on O=C1Nc2ccc(-c3ccc(Cl)cc3F)cc2C(=O)N2CCN(C(=O)[C@@H]3C[C@@H](O)CN3)CC12 (stereo partly drawn) [Compound A70, 7-(4-Chloro-2-fluorophenyl)-2-((2S,4R)-4-hydroxy-pyrrolidine-2-carbonyl)-1,3,4,11a-tetrahydro-2H,10H-2,4a,10-triazadibenzo[a,d]cycloheptene-5,11-dione] yielded a remaining activity at 10 µM of 28% and an IC50 greater than 1000 nM.
For CN(C)CCN1C(=O)C2CN(C(=O)CC(C)(C)C)CCN2C(=O)c2cc(-c3ccc(Cl)cc3)ccc21 (centres unmarked) [Compound A134, 7-(4-Chlorophenyl)-10-(2-dimethylaminoethyl)-2-(3,3-dimethylbutyryl)-1,3,4,11a-tetrahydro-2H,10H-2,4a,10-triazadibenzo[a,d]cycloheptene-5,11-dione], the remaining activity at 10 µM was -19% and the IC50 was greater than 1000 nM.
